Assay results taken from patent publication US20240327768A1, “MICROFLUIDIC DEVICE MIMICKING TUMOR MICROENVIRONMENT” (The Texas A&M University System, priority 2021, published 2024).

Columns and labels:
[1] = system: ovarian cancer cell; settings: in vitro study; cited from earlier work
[2] = system: A2780 epithelial ovarian cancer cells; experiment: RNA sequencing and differential gene analysis of chip-derived tumors; format: cell-based, human; settings: RNA-seq of chip-derived tumors
Procedure: Validation of cancer cell-platelet-drug crosstalk within OTME-Chip with next generation RNA-sequencing. It was recently shown that a collaboration of organ-chip technology with RNA-seq analysis is a powerful tool to validate preclinical studies and derive unbiased clinical predictions. Therefore, to solidify insights into the platelet-tumor signaling nexus and the therapeutic effect of Revacept, transcriptomic profiling was performed of different chip-derived tumors through RNA sequencing. Through RNA sequencing and differential gene analysis, expression of 12452 genes in the OTME-Chip relative to Control-Chip was detected. Similarly, expression of 5566, 6909 and 3821 genes in the Cx-OTME-Chip, CxRx-OTME-Chip and KO-OTME-Chip respectively relative to Control-Chip was detected. […]
RNA sequencing and analysis. […] Isolated mRNA samples were then analyzed using the NextSeq 500 platform (Illumina) and sample preparation was performed using TruSeqRNA sample preparation with paired-end read length of 2×75 bases (Molecular Genomics Workspace, Texas A&M University, College Station, TX). Then HISAT2 was used to splice align the reads to latest ENSEMBL-release-102 human genome/transcriptome (GRCh38.p13). […] Differentially expressed genes were then evaluated for all groups using DESeq2 package in R®. […]

[3] = system: metastasis and cell proliferation genes; experiment: Transcriptional analysis (qRT-PCR) of cancer cells from OTME-Chip; format: cell-based, human; settings: cancer cells obtained from the chips, over time; Revacept 40 μg/mL, cisplatin 6 μg/mL
Procedure: (§1) Drugs. Cisplatin (Fisher Scientific, USA) and Revacept (Advancecor GamBH, Germany) were dissolved in DMSO and PBS/4% Mannitol/1% Sucrose respectively to prepare master stocks (1 mg/mL). These were further diluted in RMPI-1640 media to obtain respective working concentrations of cisplatin (6 μg mL^−1) and Revacept (40 μg mL^−1). They were perfused into the chip tumor chamber individually or in combination in presence or absence of extravasated platelets.
Quantitative real-time PCR. Cancer cell total RNA was isolated using the Arcturus PicoPure RNA Isolation Kit specifically (Thermofisher Scientific, CAS-KIT0214) designed to recover high-quality RNA consistently from fewer cells. Cells isolated from the Chip were washed in prescribed in buffer (0.9 mL of 1×PBS/10% BSA; 0.1 mL of 0.5 M EDTA) and total cellular RNA was isolated by using the manufacturer's protocol. […] The cDNA prepared was further used for the subsequent quantitative qRT-PCR reactions using SyBR green master mix (Applied Biosystems™ SYBR™ Green select PCR Master Mix) and gene specific primers. […] Gene expression was analyzed by quantifying the relative fold changes in mRNA levels of individual genes using comparative Cycle Threshold (CT)/ACT method.

[4] = system: growth factors (PDGF, VEGF, and TGFβ) and cytokines (IL-8, MMP9, and IL-6); experiment: Growth factors and cytokines in OTME-Chip tumor chamber effluents (multiplex); format: cell-based, human; settings: Revacept 40 μg/mL, cisplatin 6 μg/mL
Procedure: as §1
Growth factors and cytokines. Growth factors and cytokines present in OTME-Chip tumor chamber media effluents were measured using multiplex (xMAP) magnetic bead-based technology provided by Millipore. Media effluents collected from tumor chamber during different time points were analyzed for cytokines and growth factors using MILLIPLEX® MAP Human cytokine/chemokine magnetic bead panel kit (Millipore, CAS-HCYTOMAG-60K) by following previously established protocols. Assays were run in a pre-calibrated Luminex MAPGPIX reader. The mean fluorescent intensity (MFI) of the magnetic beads correlating with the concentration (pg/mL) of respective cytokines and growth factors was calculated using xPONENT 4.2 software and data analysis was done with Milliplex Analyst 5.1 software (Millipore). The concentration of cytokines obtained in each sample was normalized with respect to controls and the assays were run in triplicate. […]

[5] = system: A2780 epithelial ovarian cancer cells; experiment: Cell cycle analysis of cancer cells from OTME-Chip; format: cell-based, human; settings: OTME-Chip with extravasated platelets, compared to untreated controls; Revacept 40 μg/mL, cisplatin 6 μg/mL
Procedure: as §1
Cell cycle analysis. Cancer cells isolated via Accutase™ treatment from the chip were fixed in 70% ethanol at […] for 6 hr and permeabilized. Cells were then incubated with 100 μg mL^−1 Propidium Iodide (PI) (Sigma-Aldrich), and 50 μg mL^−1 ribonuclease A in the dark for 30 min at 37° C. Flow cytometry was performed on a BD Accuri C6 flow cytometer (BD Biosciences, USA) and cell cycle analysis was done using CellQuest Pro software.

[6] = system: A2780 epithelial ovarian cancer cells; experiment: Cancer cell proliferation assay (Ki67) in OTME-Chip; format: cell-based, human; settings: OTME-Chip with extravasated platelets; Revacept 40 μg/mL, cisplatin 6 μg/mL
Procedure: as §1
Cancer cell proliferation assay. Isolated cancer cells were immunostained with monoclonal anti-Ki67 antibody-Alexa Fluor488 conjugate (Abcam). The fluorescence intensity was then measured with a plate reader using excitation/emission wavelengths of 488/519 nm. Platelet free cancer cells obtained from other chips during similar time points were kept as control. Proliferation rate was measured as a percentage ratio of fluorescent intensities of experimental and control cells.

[7] = system: A2780 epithelial ovarian cancer cells; experiment: Cancer cell ECM invasion in OTME-Chip (A2780); format: cell-based, human; settings: OTME-Chip with extravasated platelets, analyzed for three days; Revacept 40 μg/mL, cisplatin 6 μg/mL
Excerpt: OTME-Chip predicts that pharmaceutical inhibition of GPVI arrests metastasis and supports chemotherapy. The potential consequences of pharmaceutical targeting of GPVI on platelets in cancer were then investigated. There are currently no FDA-approved anti-GPVI drugs in the market. However, Revacept is an inhibitor that has been successfully evaluated against collagen-mediated platelet adhesion in phase I clinical trials of atherosclerosis and stroke. Revacept inhibited the platelet GPVI and tumor galectin-3 interaction in a colon carcinoma cell line. This drug is a fusion protein consisting of the Fc part of human IgG, a short hinge region, a specific linker sequence, and the extracellular part of human platelet GPVI with a molecular mass of 150 kDa. […] Thereafter, these chips were analyzed for three days (FIG. 7). […]
Cell invasion. […] Invasion dynamics of live stained cancer cells (green) into the Chip ECM chamber hydrogel was visualized using fluorescence microscopy (Zeiss Axio Observer; LD Plan Neofluar 10×, NA 0.4). […] Images were analyzed and processed using software ZEN 2.3 lite (ZEISS). […] The ECM invasion of cancer cells was calculated as the ratio of area occupied by invaded cancer cells in ECM chamber vs. the total area of ECM chamber.

Row | Structure (SMILES) | platelet-induced ovarian cancer cell invasion [1] | expression of genes of signaling pathways (NFκB, TGFβ/Smad, Hippo, MAPK, mTOR, Notch, PI3-Akt, Wnt), volcano plots [2] | expression of these pathways, heatmaps of expression profiles ([2]; different chip conditions) | platelet-induced upregulation of metastasis and cell proliferation genes [3] | concentration of growth factors (PDGF, VEGF, TGFβ) and cytokines (IL-8, MMP9, IL-6) [4] | G2/M phase in cancer cells [5] | proliferation rate of the cancer cells [6] | ECM invasion of cancer cells / tumor invasiveness [7]
1 | CC(=O)Oc1ccccc1C(=O)O [aspirin, acetylsalicylic acid] | attenuated | – | – | – | – | – | – | –
2 | N.N.[Cl][Pt][Cl] [cisplatin, reference compound] | – | reduced | downregulated | altered overtime modestly | modest effect | modest effect | modest effect | modest effect
